Among the data in ChEMBL document CHEMBL1151676, “Structure and absolute stereochemistry of fusaproliferin, a toxic metabolite from Fusarium proliferatum” (J Nat Prod, 1996) are LC50 values, retold here.

This data set can be described thus: Toxicity in Artemia salina. Format: organism-based. The conditions noted are these: in vivo, read-out: LD50 (the source's name).

In brackets after ≈: the same amount, converted by molar mass.

Regarding `CC(=O)OC[C@@H](C)C1=C(O)C(=O)[C@@]2(C)C/C=C(\C)CC/C=C(\C)CC[C@H](O)/C(C)=C/C[C@H]12` [FUSAPROLIFERIN], the LC50 amounted to 0.4 µg/mL (≈ 0.9 µM).
